Assay results taken from US20020040031A1, “Methods for prevention of accumulation of amyloid beta peptide in the central nervous system” (priority 2000, published 2002).

What was measured:
[1] = tested on: sAPP secretion in PC12 cells; assay: sAPP secretion in PC12 cells, Western immunoblot of conditioned media (Example 1); format: cell-based; conditions: for secretion of sAPP versus control: single agent, PC12 conditioned media, 48 hours, 22C11 immunoblot, NGF 10 and 50 ng/ml, bFGF 50 ng/ml, AIT-082 different doses
Protocol: Treatment of Cells and Preparation of Cell Extract. PC12 cells were first grown to 70-80% confluence in the regular medium. A day prior to the experiment, PC12 cells were subcultured uniformly onto the plate with minimum cellular aggregation/ clumping to approximately 1×10^6 cells per 60-mm plate. The PC12 cells were then subjected to treatments with either AIT-082, NGF, bFGF or a combination as previously described (4). AIT-082 was added into separate plates at […] different doses: 0, 5, 20, 30, 50, 100, 300 ng/ ml and also 1, 3, 10, 30, 100 μg/ml. For comparative purposes, cultures were treated with NGF at 10 and 50 ng/ml, and bFGF was used at 50 ng/ml. Additional cultures contained both AIT-082 (300 ng/ml) and either NGF (50 ng/ml) or bFGF (50 ng/ml). Following incubation for 48 hours, the conditioned medium from each plate was collected.
PAGE and Western Immunoblotting. Total proteins from the conditioned media were analyzed on a 12% polyacrylamide gel containing SDS (SDS-PAGE), and western blot analysis was performed in the Mini-PROTEAN II system of Bio-Rad as described previously (6). sAPP was detected using the 22C11 (Boehringer Mannheim, Indianapolis, Ind.). A biotinylated secondary antibody, horse anti-mouse (Boehringer Mannheim), was also used. The detection system was based on the avidin-biotinylated-complex (Vector labs, Burlingame, Calif.) and enzymatic color reactions.
Treatment of NGF or bFGF Results in a Substantial Increase in sAPP Secretion in PC12 Cells. In denaturing polyacrylamide gel, an equal amount of total protein was loaded from each of the conditioned medium samples. After 48 hours of incubation, 50 μg samples of conditioned media were subjected to SDS-PAGE (12%) and transferred to a nitrocellulose membrane. Protein size markers shown on the left of the blot from top to bottom are: 107, 74, 49.3, 36.4, and 28.5 kDa. For FIG. 1, the transferred proteins were probed with anti-APP antibody (22C11), and immunodetection was carried out by the enzymatic color method as described previously (5). Two distinct bands of 110 and 95 kDa were detected, which correspond to soluble APP derivatives (sAPP) arising from different alternate forms of APP and/or their posttranslationally modified derivatives.

[2] = tested on: PC12 cells; assay: NGF-mediated differentiation of PC12 cells (Example 2); format: cell-based
[3] = tested on: sAPP release from PC12 cultures; conditions: previously shown, reference 7; cited from earlier work
[4] = tested on: sAPP secretion in PC12 cells; assay: Time course of sAPP secretion in PC12 cells, Western immunoblotting (Example 2); format: cell-based; conditions: PC12 cells treated for 6, 12, 24, 48, or 72 hours; AIT-082 10 nM-100 μM; RPMI 1640 and 0.5% FBS
Protocol: To determine the time course of sAPP secretion after administration of AIT-082 or NGF to PC12 cells, an experiment similar to the experiment of Example 1 was carried out using multiple time points. Five to six million PC12 cells were treated in RPMI 1640 and 0.5% FBS with doses of AIT-082 (10 nM-100 μM). […] Levels of sAPP in samples from conditioned media and cell lysates were measured by Western immunoblotting with anti-sAPP antibody. When PC12 cells were treated with AIT-082 for 6, 12, 24, 48, or 72 hours, there was an increase in levels of secreted sAPP.

[5] = tested on: secretion of Aβ in cultured PC12 cells; assay: Secretion of Aβ in cultured PC12 cells, sandwich ELISA (Example 3); format: cell-based; conditions: AIT-082 100 μg/ml, PC12 conditioned media
Protocol: To determine the effect of AIT-082 on Aβ levels, PC12 cells were treated with a high dose of AIT-082 (100 μg/ ml) and the conditioned media was analyzed for Aβ. Levels of total Aβ were measured using a sensitive sandwich ELISA. Experiments were done in triplicate and the values were obtained from known standards run in parallel with the samples as described previously (A. Becher et al., “The Synaptophysin-Synaptobrevin Complex: A Hallmark of Synaptic […] Maturation,” J. Neurosci. 19: 1922-1931).

[6] = tested on: nerve growth factor (NGF), neurotrophin-3, and basic fibroblast growth factor (bFGF); conditions: at least three neurotrophins; reference 3; cited from earlier work

Row | Compound | secretion of sAPP versus control [1] | differentiation phenotype of PC12 cells ([2]; NGF treatment alone) | release of sAPP from PC12 cultures [3] | levels of extracellular sAPP versus control cultures (dose response, densitometry, FIG. 2) ([1]; AIT-082 5-300 ng/ml, PC12) | levels of secreted sAPP [4] | effect of cotreatment on NGF-mediated differentiation ([2]; AIT-082 cotreatment with NGF, PC12 cells) | Percent change from controls (total Aβ) [5] [%] | Levels of total Aβ ([5]; triplicate) [fmols/ml] | expression of neurotrophins (NGF, neurotrophin-3, bFGF) [6]
1 | NGF: Nerve growth factor procured from Life Technologies | significant increase | sympathetic neuronal phenotypes | induce the release of sAPP |  |  |  |  |  | 
2 | bFGF: basic fibroblast growth factor procured from Life Technologies | slight increase |  |  |  |  |  |  |  | 
3 | O=C(CCn1cnc2c(=O)[nH]cnc21)Nc1ccc(C(=O)O)cc1 [AIT-082, N-4-carboxyphenyl-3-(6-oxohydropurin-9-yl) propanamide] | significant increase |  |  | statistically significantly higher | increase | enhanced NGF-mediated differentiation | −20 | 136 ± 6 | induce the expression
